Tests used:
[1] = tested on: neutrophil adherence to human umbilical vein endothelial cells (HUVEC); assay: Adherence of neutrophils to cultured (TNF alpha stimulated) endothelial cells; format: cell-based; settings: for role of RGD in blocking neutrophil adherence (in words) / inhibition of neutrophil adherence: 20-mer peptides, 0.5 mM; for inhibition of neutrophil adherence (in words): peptides 0.5 mM (Example 9); for neutrophil adherence, peptide plus 9D4: peptide 5 μg/ml + 9D4 10 μg/ml; for neutrophil adherence, peptide plus 12H1: peptide 5 μg/ml + 12H1 10 μl of ascites; for neutrophil adherence, peptide plus IB4: peptide 5 μg/ml + IB4 10 μg/ml; for neutrophil adherence, single agent: peptide 5 μg/ml or antibody alone (IB4 10 μg/ml, 12H1 10 μl of ascites, 9D4 10 μg/ml); for additive reduction of neutrophil adherence, peptide together with IB4: with anti-CD18 mAb IB4 (50 μg/ml); for maximal inhibition of neutrophil attachment: concentration series (FIG. 25B)
Experimental: FIG. 17 is a bar graph representation of the inhibition of neutrophil adherence to activated endothelial cells by FHA, Factor X- and FHA- derived peptides. The concentration of inhibiting substances was: peptides 0.5 mM, native FHA 0.3 μM. Values represent the mean±standard deviation of 4 experiments with 5 wells/peptide.
FIG. 18 is a graphical representation of the FHA, FHA- or Factor X-peptide concentration effects on the inhibition of neutrophil adherence to activated endothelial cells. FHA peptide II monomer (Square) and trimer (Diamond), Factor X peptide II (Circle) at 10^-9 μM to 0.5 mM; native FHA at 10^-6 to 3×10^2 μM (triangle). Values represent the mean of 3 experiments with 5 wells/peptide (standard deviations <15%).
FIG. 25 is a graphical representation of the inhibition of neutrophil adherence to activated endothelial cells by FHA and FHA peptides. FIG. 25A: Peptide concentrations were 0.5 mM (FHA 0.2 μM). Values represent mean±standard deviation of four experiments with 5 wells/peptide; FIG. 25B represents the mean±standard deviation of triplicate experiments with 5 wells/peptide. Native FHA (.quadrature.); FHA peptide Ca (.largecircle.).
Human umbilical vein endothelial cells (HUVEC, first passage, Clonetics, San Diego, Calif.) were subcultured at confluence into Terasaki tissue culture wells. After 24 hours, confluent monolayers were used for adherence assays. Monolayers were stimulated with 10 ng/ml TNF alpha (Boehringer Mannheim, Indianapolis, Ind.) at 37° C. for four hours. 30 μl of human neutrophils (10^6 /ml) were labeled with fluorescein by the method of Lo et al. (1991), J. ExP. Med. 173 1493-1500, and preincubated for 15 minutes at 37° C. with 20 μl of peptides (0.5 mM in HAP) or HAP (phosphate buffered saline containing 0.5 mg/ml human serum albumin, 3 mM glucose, and 0.3 U/ml aprotinin) as a control buffer. For some experiments, endothelial cells were pretreated from 10 minutes with Factor X or antibodies against Factor X receptor (EPR-1; Altieri et al. (1990), J. Immunol. 145, 246-253) 12H1 and 9D4 (obtained from Dr. D. Altieri, Scripps Research Institute, LaJolla, Calif.) and then washed. Neutrophils were allowed to adhere to the monolayer for 15 mins. at 37° C. and unbound cells were removed by submersion of the plate in PBS buffer. The number of adherent neutrophils was counted in a 40× microscope field and expressed as a percentage of adherence in control wells with neutrophils treated with HAP buffer alone. The mAb IB4 against CD18 (50 μg/ml; Merck Inc., Rahway, N.J.) served as a positive control.
The ability of FHA peptides and anti-CD18 or anti-Factor X receptor antibodies to interact cooperatively to inhibit neutrophil adherence to endothelial cells was assessed by measuring neutrophil adherence to endothelial cells in the presence of antibody as well as antibody plus peptide. […] Anti-Factor X receptor mAb 12H1 (10 μl of ascites) or 9D4 (10 μg/ml) were added to the endothelial cell monolayers 10 min before the assay. The peptides were added at 5 μg/ml. The results are shown in Table 8 where the numerical values are in % of control binding.
The procedures for determining the neutrophil adherence to cultured endothelial cells and the transendothelial migration of neutrophils were identical with those of Example 9. Control values were the same as those shown in Example 9.

[2] = tested on: lactate metabolism during meningeal inflammation; assay: Rabbit model for meningitis: lactate in CSF; format: in vivo, New Zealand white rabbits; settings: 6 hours after challenge
Experimental: The rabbit model was performed according to an established protocol. Specific pathogen free, New Zealand white rabbits (2 kg; Hare Marland, Nutley, N.J.) were anesthetized with valium (2.5 mg/kg, subcutaneously, Hoffman-LaRoche, Nutley, N.J.), ketamine (35 mg/kg, intra-muscularly, Aveco, Fort Dodge, Iowa) and xylazine (5 mg/kg, intramuscularly, Miles Laboratories, Shawnee, Kans.) and a helmet of dental acrylic was affixed to the calvarium. Twenty four hours later, the rabbits were anesthetized with ethyl carbamate (1.75 g/kg; Aldrich Chemical Co., Milwaukee, Wis.) and pentobarbital (15 mg/kg; Abbott Laboratories, Abbott Park, Ill.) and placed in a stereotaxic frame. A spinal needle was introduced into the cisterna magna and 300 μl of CSF was withdrawn. The animals were challenged intracisternally with 10^8 heat killed, unencapsulated pneumococcus strain R6 introduced in 200 μl of saline (time 0). One hour later, animals were treated with peptides dissolved in 1 ml of saline by intravenous injection into the right marginal ear vein. The concentration of FHA was 0.1 μM and that of the FHA Ia, Factor X II, and scrambled FHA II peptides was 10 μM. For the acetyl-FHA II, acetyl/amide-FHA II, dimer of FHA II and trimer of FHA II peptides, the concentration was 10^-3 μM. The concentration of FHA II is given in the results section. Samples of CSF were withdrawn at hourly intervals after pneumococcal inoculation and leukocyte density was measured using a cell counter (Coulter Electronics Inc., Hialeah, Fla.). CSF samples were centrifuged at 10,000×g for 5 minutes and the supernatant was stored at -70° C. until assayed for protein concentration using the bicinchoninic acid method (ECA Kit, Pierce Chemical Co., Rockford, Ill.) and for lactate concentration (Lactate Detection Kit, Sigma, St. Louis, Mo.). Statistically significant differences between treatments were determined by a one way analysis of variance test.
Loss of barrier function of the cerebral capillary endothelium during inflammation is reflected by an influx of serum proteins into the CSF. […] To examine if the peptides were able to ameliorate these measures of cerebral injury, CSF protein and lactate concentrations were measured hourly in peptide-treated and control animals (Table 10).
Mean values for CSF lactate and protein at time 0 were 18.6±5.8 and 0.8±0.2 respectively. Ten control animals received phosphate-buffered saline. The concentration of FHA II intravenously injected one hour after challenge with pneumococci was 10 μM. Values represent mean±standarddeviation of concentrations in CSF at 6 hours after pneumococcal challenge (n≥4 for peptide treated animals; n=4 for FHA). *Statistically significant difference as compared to control at p<0.02 (Mann-Whitney test).
Again, mean values for CSF lactate and protein at time 0 were 18.6±5.8 and 0.8±0.2, respectively. Ten control animals received phosphate-buffered saline. The concentrations of FHA II intravenously injected was 10^-3 μM. Values represent mean±standard deviation of concentrations in CSF at 6 hours after pneumococcal administration (n≥4 per group).

AADPHQGVLAQGDIIMDAKG [FHA Cc]
role of RGD in blocking neutrophil adherence (in words) [1]: activity was detectable above background but was not statistically different from buffer alone

Ac-ETKEVDG-NH2 [Acetyl/Amide-FHA II]
inhibition of neutrophil adherence (in words) [1]: significantly enhanced the ability of peptide FHA II to block neutrophil adherence to endothelia | Lactate in CSF ([2]; peptides 10 μM, FHA 0.1 μM): 24.3 ± 3.2 mg/100 ml

DEETVK [scrambled FHA II, reference compound]
inhibition of neutrophil adherence (in words) [1]: did not interfere with neutrophil binding | Lactate in CSF ([2]; peptides 10 μM, FHA 0.1 μM): 40.7 ± 5.8 mg/100 ml

ETKEVDG [FHA II]
neutrophil adherence, peptide plus 9D4 [1]: 45 ± 9 % of control binding | neutrophil adherence, peptide plus 12H1 [1]: 67 ± 13 % of control binding | neutrophil adherence, peptide plus IB4 [1]: 11 ± 6 % of control binding | neutrophil adherence, single agent [1]: 40 ± 23 % of control binding | additive reduction of neutrophil adherence, peptide together with IB4 [1]: > 80±10% | Lactate in CSF ([2]; 10^-3 μM): 35.3 ± 6.7 mg/100 ml | Lactate in CSF ([2]; peptides 10 μM, FHA 0.1 μM): 25.5 ± 4.1 mg/100 ml

GTLLLRNDALTENGTVTISA [FHA Cd]
inhibition of neutrophil adherence [1]: < 15%

GYDTKQEDG [Factor X II]
Lactate in CSF ([2]; peptides 10 μM, FHA 0.1 μM): 37.6 ± 6.9 mg/100 ml

LGYQAK (UniProt P12255 1979-1984, looked up, fragment) [FHA Ia]
neutrophil adherence, peptide plus 9D4 [1]: 63 ± 17 % of control binding | neutrophil adherence, peptide plus 12H1 [1]: 64 ± 12 % of control binding | neutrophil adherence, peptide plus IB4 [1]: 20 ± 7 % of control binding | neutrophil adherence, single agent [1]: 63 ± 12 % of control binding | inhibition of neutrophil adherence (in words) [1]: significantly more active than the Factor X peptide I | additive reduction of neutrophil adherence, peptide together with IB4 [1]: > 80±10% | Lactate in CSF ([2]; peptides 10 μM, FHA 0.1 μM): 36.0 ± 6.7 mg/100 ml

RADPHQGVLAQGDIIMDAKG [FHA Cb]
role of RGD in blocking neutrophil adherence (in words) [1]: activity was decreased by half

RGDPHQGVLAQGDIIMDAKG [FHA Ca]
inhibition of neutrophil adherence [1]: 47±7% | maximal inhibition of neutrophil attachment [1]: ~ 50%

native FHA: Filamentous hemagglutinin, 220kD surface associated protein of Bordetella pertussis (List Biologicals)
concentration at which loss of activity (≤20% inhibition) occurred [1]: 10^-3 μM | maximal inhibition of neutrophil attachment [1]: ~ 50% | reduction of neutrophil binding to HUVEC ([1]; native FHA 25 μg/ml = 0.3 μM): 51±8% | inhibition of adherence of neutrophils to endothelial cells ([1]; native FHA 50 ug/ml, 0.2 uM): 51±7% | Lactate in CSF ([2]; peptides 10 μM, FHA 0.1 μM): 25.0 ± 5.3 mg/100 ml
